Here are results for nine molecules from ChEMBL document CHEMBL5465560, “Selectivity Literature for EUbOPEN Chemogenomic Library” (2024).

The target of test [1] is Tyrosine-protein kinase ABL2 (Homo sapiens, UniProt P42684). Description: Selectivity interaction (KinomeScan (DiscoverX)) EUB0000595a ABL2. To be noted: at 10 µM.
Test [2] has as its target Ribosomal protein S6 kinase alpha-3 (Homo sapiens, UniProt P51812). Nature of the test: Selectivity interaction (ActivX KiNativ screen (ex vivo kinase selectivity in human PBMCs)) EUB0001619a RPS6KA3. The conditions noted are these: PBMC, at 1 µM. The format is cell-based.
The target of test [3] is T1, Serine/threonine-protein kinase RIO1 (Homo sapiens) (UniProt Q9BRS2).
T1 sequence (whole entry): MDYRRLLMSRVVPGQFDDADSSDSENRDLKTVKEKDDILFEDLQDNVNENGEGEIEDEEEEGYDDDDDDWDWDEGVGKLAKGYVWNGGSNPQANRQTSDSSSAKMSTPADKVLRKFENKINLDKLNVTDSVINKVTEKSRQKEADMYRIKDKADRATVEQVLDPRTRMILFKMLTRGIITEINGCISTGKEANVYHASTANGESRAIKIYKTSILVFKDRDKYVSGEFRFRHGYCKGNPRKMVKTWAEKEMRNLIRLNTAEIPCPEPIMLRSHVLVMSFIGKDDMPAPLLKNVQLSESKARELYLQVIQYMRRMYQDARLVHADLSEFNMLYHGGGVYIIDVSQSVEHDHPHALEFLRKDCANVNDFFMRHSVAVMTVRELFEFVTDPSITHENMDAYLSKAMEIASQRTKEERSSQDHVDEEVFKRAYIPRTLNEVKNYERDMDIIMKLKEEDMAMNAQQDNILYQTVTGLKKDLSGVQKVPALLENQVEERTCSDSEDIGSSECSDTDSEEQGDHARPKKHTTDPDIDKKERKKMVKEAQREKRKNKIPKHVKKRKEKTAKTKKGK
To be noted: at 10 µM.

Test [4] has as its target T2, Membrane-associated tyrosine- and threonine-specific cdc2-inhibitory kinase (Homo sapiens) (UniProt Q99640).
T2 sequence (whole entry): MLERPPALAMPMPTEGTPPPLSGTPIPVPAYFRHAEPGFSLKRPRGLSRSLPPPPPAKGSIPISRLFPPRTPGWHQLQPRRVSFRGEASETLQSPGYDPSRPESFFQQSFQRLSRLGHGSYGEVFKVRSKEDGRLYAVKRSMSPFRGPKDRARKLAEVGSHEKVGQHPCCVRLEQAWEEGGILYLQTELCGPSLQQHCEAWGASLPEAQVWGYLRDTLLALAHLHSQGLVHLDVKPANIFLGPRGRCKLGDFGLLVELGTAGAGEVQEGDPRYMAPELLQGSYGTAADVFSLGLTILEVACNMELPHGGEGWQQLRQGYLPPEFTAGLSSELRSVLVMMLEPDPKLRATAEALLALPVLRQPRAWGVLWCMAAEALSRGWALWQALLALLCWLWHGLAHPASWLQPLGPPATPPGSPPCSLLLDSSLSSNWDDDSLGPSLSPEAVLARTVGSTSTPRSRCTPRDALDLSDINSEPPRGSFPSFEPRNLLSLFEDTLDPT
Description: Selectivity interaction (KinomeScan (DiscoverX)) EUB0000666a PKMYT1. To be noted: at 10 µM.

Test [5] deals with AP2-associated protein kinase 1 (Homo sapiens, UniProt Q2M2I8). Nature of the test: Selectivity interaction (KinomeScan (DiscoverX)) EUB0000666a AAK1. The conditions noted are these: at 10 µM.
Chain of AP2-associated protein kinase 1 (Q2M2I8 whole entry, looked up): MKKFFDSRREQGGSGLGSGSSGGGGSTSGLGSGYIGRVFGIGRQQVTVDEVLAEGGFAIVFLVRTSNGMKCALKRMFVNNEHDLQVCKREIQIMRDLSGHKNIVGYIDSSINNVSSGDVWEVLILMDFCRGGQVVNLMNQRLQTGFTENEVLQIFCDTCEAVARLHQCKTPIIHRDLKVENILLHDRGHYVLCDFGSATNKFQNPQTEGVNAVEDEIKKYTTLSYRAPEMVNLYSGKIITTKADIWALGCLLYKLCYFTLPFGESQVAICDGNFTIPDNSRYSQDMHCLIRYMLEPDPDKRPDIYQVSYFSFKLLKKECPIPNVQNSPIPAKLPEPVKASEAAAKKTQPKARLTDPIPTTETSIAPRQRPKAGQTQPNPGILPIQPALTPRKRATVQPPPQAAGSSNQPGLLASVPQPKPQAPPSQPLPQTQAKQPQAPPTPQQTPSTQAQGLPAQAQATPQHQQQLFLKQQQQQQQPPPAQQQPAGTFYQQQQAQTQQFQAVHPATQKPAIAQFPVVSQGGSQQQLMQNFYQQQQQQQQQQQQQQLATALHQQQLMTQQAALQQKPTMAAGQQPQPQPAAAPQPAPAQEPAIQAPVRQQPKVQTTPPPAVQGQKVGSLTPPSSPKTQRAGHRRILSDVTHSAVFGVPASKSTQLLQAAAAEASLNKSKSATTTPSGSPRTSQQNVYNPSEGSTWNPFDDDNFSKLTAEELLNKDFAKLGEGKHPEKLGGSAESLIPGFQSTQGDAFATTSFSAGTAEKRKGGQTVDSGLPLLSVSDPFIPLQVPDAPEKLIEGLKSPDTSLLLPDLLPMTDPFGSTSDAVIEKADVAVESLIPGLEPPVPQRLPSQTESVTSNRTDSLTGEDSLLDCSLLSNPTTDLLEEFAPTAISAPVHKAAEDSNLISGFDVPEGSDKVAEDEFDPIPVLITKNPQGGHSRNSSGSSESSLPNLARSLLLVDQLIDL
Test [6] has as its target Proto-oncogene tyrosine-protein kinase receptor Ret (Homo sapiens, UniProt P07949). To be noted: at 10 µM.
The target of test [7] is T3, Mitogen-activated protein kinase kinase kinase kinase 3 (Homo sapiens) (UniProt Q8IVH8).
T3 sequence (whole entry): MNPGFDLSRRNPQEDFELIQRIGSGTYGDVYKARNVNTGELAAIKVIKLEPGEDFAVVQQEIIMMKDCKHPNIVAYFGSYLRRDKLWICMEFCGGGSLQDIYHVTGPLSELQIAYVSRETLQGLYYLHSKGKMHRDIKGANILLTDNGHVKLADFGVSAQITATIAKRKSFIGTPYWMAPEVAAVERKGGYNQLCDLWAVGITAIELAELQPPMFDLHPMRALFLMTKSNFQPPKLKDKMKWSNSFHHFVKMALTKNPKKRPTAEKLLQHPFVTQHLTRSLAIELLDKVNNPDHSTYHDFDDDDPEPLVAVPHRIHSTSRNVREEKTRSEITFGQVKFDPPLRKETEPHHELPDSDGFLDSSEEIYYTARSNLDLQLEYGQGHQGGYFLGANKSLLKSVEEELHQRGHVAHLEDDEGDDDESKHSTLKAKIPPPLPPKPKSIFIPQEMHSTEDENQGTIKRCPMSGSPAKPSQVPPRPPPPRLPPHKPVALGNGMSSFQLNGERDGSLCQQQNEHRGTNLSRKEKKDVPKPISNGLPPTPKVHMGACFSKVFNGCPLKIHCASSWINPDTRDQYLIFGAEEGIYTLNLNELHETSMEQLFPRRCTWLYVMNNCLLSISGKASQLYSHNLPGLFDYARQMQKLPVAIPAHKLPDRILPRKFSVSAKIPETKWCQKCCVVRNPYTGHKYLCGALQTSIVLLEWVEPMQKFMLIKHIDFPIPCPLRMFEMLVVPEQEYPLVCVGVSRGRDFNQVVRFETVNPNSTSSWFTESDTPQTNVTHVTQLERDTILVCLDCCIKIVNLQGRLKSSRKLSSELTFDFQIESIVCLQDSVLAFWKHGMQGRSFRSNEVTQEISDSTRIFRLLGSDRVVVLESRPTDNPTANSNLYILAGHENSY
Nature of the test: Selectivity interaction (KinomeScan (DiscoverX)) EUB0000045b MAP4K3.

Test [8] addresses DNA-dependent protein kinase catalytic subunit (Homo sapiens) (UniProt P78527). Description: Selectivity interaction (ProQinase) EUB0000171b PRKDC.
The target of test [9] is Dual specificity mitogen-activated protein kinase kinase 2 (Homo sapiens) (UniProt P36507). Description: Selectivity interaction (KinomeScan (DiscoverX)) EUB0001049a MAP2K2. The conditions noted are these: at 1 µM.
Test [10] has as its target Dual specificity tyrosine-phosphorylation-regulated kinase 1B (Homo sapiens, UniProt Q9Y463). Description: Selectivity interaction (KinomeScan (DiscoverX)) EUB0000092b DYRK1B. To be noted: at 10 µM.

Chain of DNA-dependent protein kinase catalytic subunit (Homo sapiens) (P78527 whole entry): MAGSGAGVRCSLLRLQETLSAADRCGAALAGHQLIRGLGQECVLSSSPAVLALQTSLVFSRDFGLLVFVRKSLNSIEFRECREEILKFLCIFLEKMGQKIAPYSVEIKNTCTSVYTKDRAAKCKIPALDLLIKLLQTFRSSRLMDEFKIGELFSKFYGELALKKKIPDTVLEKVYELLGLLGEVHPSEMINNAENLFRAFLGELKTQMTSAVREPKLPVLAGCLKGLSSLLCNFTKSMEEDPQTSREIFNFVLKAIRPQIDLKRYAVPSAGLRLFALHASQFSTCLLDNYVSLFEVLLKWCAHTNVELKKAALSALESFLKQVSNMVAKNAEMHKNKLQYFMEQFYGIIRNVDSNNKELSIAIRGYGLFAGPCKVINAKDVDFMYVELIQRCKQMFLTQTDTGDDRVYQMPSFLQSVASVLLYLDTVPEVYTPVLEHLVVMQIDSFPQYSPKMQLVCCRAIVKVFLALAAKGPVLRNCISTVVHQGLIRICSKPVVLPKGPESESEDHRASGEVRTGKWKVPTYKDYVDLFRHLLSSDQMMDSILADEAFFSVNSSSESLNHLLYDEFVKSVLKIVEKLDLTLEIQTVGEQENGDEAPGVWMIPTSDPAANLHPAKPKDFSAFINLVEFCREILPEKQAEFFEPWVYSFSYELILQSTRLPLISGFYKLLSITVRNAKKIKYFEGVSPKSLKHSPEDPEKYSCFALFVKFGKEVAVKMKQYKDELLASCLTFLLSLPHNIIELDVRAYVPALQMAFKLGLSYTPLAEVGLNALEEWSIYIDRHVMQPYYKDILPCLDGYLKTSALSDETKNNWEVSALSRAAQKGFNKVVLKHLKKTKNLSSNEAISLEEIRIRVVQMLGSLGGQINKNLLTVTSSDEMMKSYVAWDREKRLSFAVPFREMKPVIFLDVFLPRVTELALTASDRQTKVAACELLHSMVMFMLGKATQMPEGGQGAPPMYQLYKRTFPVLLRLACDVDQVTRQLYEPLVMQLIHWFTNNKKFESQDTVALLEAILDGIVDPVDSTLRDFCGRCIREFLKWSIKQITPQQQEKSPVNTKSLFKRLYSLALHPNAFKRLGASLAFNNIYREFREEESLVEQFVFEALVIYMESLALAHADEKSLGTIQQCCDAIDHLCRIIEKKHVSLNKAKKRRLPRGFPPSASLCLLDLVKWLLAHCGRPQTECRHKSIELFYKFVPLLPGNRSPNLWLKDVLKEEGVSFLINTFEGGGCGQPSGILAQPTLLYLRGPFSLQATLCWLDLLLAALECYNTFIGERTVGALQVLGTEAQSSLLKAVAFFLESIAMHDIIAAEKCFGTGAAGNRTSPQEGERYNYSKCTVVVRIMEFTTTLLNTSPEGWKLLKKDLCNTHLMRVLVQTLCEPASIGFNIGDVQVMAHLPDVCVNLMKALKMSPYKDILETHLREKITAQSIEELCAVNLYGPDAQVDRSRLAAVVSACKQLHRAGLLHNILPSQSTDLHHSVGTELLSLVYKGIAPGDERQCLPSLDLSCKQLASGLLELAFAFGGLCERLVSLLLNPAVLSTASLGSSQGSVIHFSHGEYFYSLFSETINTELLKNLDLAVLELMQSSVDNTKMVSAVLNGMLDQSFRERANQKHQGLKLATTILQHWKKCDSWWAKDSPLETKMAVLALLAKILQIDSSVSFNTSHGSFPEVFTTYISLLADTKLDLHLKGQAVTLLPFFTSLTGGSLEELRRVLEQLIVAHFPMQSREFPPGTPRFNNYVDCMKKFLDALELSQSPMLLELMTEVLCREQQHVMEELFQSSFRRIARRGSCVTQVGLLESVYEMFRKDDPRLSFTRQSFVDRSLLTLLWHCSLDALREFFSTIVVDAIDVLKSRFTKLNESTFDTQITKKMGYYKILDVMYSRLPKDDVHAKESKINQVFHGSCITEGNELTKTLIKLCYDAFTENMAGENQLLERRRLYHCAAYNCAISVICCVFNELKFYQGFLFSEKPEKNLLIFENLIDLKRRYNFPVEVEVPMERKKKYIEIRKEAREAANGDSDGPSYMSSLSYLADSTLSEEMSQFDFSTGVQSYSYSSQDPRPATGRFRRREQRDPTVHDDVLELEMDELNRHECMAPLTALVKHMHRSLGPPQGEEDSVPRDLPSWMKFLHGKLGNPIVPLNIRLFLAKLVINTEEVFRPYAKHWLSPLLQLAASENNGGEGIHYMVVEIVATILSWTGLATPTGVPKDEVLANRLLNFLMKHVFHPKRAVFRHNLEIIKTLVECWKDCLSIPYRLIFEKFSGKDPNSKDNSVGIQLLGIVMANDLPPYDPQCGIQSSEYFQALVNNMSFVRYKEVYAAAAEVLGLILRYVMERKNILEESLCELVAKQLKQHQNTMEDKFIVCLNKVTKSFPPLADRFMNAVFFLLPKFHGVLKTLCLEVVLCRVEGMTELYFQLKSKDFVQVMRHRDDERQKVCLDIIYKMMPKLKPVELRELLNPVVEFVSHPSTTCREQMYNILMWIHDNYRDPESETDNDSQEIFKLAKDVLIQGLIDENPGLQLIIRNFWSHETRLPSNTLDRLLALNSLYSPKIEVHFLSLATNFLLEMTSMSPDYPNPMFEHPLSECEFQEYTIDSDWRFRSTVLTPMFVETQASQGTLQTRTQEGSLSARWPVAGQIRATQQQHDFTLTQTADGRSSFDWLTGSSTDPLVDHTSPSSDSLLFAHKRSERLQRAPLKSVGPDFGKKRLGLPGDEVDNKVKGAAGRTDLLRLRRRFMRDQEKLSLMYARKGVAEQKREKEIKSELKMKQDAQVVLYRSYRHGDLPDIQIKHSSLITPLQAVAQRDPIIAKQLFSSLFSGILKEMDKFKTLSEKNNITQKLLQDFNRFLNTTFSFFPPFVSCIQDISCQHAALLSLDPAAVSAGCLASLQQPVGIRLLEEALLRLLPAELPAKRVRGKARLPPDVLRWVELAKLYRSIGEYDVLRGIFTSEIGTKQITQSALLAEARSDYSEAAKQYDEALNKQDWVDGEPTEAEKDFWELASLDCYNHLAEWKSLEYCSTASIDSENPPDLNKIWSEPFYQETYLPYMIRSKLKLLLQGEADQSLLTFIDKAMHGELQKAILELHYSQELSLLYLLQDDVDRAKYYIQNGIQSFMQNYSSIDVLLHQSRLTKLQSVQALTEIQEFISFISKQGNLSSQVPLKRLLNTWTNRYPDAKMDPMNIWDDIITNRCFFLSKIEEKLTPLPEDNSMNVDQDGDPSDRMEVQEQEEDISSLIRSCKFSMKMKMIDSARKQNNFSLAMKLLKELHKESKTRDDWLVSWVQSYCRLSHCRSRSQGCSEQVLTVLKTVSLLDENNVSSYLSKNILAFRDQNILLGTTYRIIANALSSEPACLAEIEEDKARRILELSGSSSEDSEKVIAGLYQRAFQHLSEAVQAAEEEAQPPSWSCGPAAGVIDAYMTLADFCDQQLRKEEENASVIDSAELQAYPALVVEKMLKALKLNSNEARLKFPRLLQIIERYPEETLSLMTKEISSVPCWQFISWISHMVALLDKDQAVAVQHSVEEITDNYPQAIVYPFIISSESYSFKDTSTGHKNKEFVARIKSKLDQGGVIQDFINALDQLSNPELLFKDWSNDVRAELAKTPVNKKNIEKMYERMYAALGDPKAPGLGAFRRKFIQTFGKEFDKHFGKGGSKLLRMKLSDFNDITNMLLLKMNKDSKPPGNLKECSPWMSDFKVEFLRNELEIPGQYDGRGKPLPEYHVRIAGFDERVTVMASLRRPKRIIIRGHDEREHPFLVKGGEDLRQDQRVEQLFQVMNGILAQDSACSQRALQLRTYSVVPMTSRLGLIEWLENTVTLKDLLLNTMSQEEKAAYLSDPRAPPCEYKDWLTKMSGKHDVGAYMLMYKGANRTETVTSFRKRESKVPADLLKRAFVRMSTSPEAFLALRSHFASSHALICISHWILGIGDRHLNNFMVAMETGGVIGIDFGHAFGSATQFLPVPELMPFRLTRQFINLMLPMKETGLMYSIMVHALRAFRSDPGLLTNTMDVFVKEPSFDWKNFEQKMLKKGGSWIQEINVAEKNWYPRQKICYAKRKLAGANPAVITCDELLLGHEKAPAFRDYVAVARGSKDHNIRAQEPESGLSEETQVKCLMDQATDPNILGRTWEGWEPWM

In test [1], `COCC(=O)NC/C=C/c1ccc2ncnc(Nc3ccc(Oc4ccc(C)nc4)c(C)c3)c2c1` [CP-724714] registered a % of control of 100%. In [2], `N#Cc1cccc(-c2c[nH]c3ncnc(N4CCOCC4)c23)c1` gave a % of inhibition of 10%.

Regarding `CCN(CC)CCCCNc1ncc2cc(-c3cc(OC)cc(OC)c3)c(NC(=O)NC(C)(C)C)nc2n1`, the % of control in test [3] amounted to 100%.

For `O=C(NOC[C@H](O)CO)c1ccc(F)c(F)c1Nc1ccc(I)cc1F`, the results for the % of control in test [4] and in test [5] were 80% and 100%, respectively. Consider `Cc1cc([C@@H](C)Nc2ccccc2C(=O)O)c2nc(N3CCOCC3)cc(=O)n2c1` [AZD-6482], for which the % of control in test [6] worked out at 100%.

On to `C=CC(=O)Nc1cc(-n2c(=O)ccc3cnc4ccc(-c5ccc(NS(C)(=O)=O)cc5)cc4c32)ccc1C`, for which the % of control in [7] (at 1 µM) and in test [7] (at 10 µM) was 100% throughout.

Consider `C=CC(=O)Nc1cccc(C(=O)Nc2ccc(Nc3cc(-c4[nH]c(SC)nc4C)ccn3)cc2)c1`, for which the % of control in test [8] (at 1 µM) was found to be 92%; in [8] (at 5 µM) it was 103%. `COc1cc(Nc2nc(C)cc(-c3cnn4nc(OC)ccc34)n2)cc(C(F)(F)F)c1` had a % of control in [9] of 77%. Molecule `CCC(=O)N1CCN(c2ccc(-n3c(=O)ccc4cnc5ccc(-c6cnc7ccccc7c6)cc5c43)cc2C(F)(F)F)CC1` showed a % of control in test [10] of 87%.
